Test results taken from patent US6133294A (priority 1999, dated 2000).

Legend:
Assay type in all cases: in vivo
Erysiphe graminis = experiment: Powdery Mildew of Wheat (Erysiphe graminis--ERYSGT); settings: wheat (cultivar Monon), 100 ppm spray to run off, inoculated after 24 hours; for pest or weed control at 100 ppm: Blumeria graminis, 1DP, read-out: control of plant disease, ERYSGT 1DP
Outline: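 Wheat seedlings (cv. Monon, 1-2 leaf stage) were sprayed to run-off at 100 ppm, from acetone solution diluted with nine volumes 0.05% aqueous Tween-20 or Triton X-100. Control rated on a scale.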

Leptosphaeria nodorum = experiment: Glume blotch of wheat (Leptosphaeria nodorum--LEPTNO); settings: wheat (cultivar Monon), 100 ppm spray to run off, inoculated after 24 hours; for pest or weed control at 100 ppm: Parastagonospora nodorum, 1DP, read-out: control of plant disease, LEPTNO 1DP
Outline: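 Wheat seedlings (cv. Monon, 1-2 leaf, BBCH 12) sprayed to run-off at 100 ppm; compound in acetone diluted with nine volumes 0.05% aqueous Tween-20 or Triton X-100. Spore inoculation with Leptosphaeria nodorum after 24 hours; disease rated in greenhouse once untreated controls developed symptoms.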

Phytophthora infestans = experiment: whole plant or invertebrate; settings: for pest or weed control at 100 ppm: Phytophthora infestans, 24 h, read-out: control of plant disease, PHYTIN 1DP
Puccinia recondita = experiment: Brown rust (Puccinia recondita--PUCCRT); settings: wheat (cultivar Monon), 100 ppm spray to run off, inoculated after 24 hours; for pest or weed control at 100 ppm: Puccinia recondita, 1DP, read-out: control of plant disease, PUCCRT 1DP
Outline: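 Wheat (cv. Monon) seedlings were sprayed to run-off at 100 ppm, with compound in acetone diluted with nine volumes of 0.05% aqueous Tween-20 or Triton X-100. Plants were inoculated with Puccinia recondita spores 24 h later.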

Structure (SMILES)	control of plant disease, ERYSGT 1DP (Erysiphe graminis)	control of plant disease, LEPTNO 1DP (Leptosphaeria nodorum)	control of plant disease, PHYTIN 1DP (Phytophthora infestans; tomatoes (cultivar Rutgers), 100 ppm spray to run off, inoculated after 24 hours, 1DP)	control of plant disease, PUCCRT 1DP (Puccinia recondita)	pest or weed control at 100 ppm (Erysiphe graminis)	pest or weed control at 100 ppm (Leptosphaeria nodorum)	pest or weed control at 100 ppm (Phytophthora infestans)	pest or weed control at 100 ppm (Puccinia recondita)
O=C(NNC(=O)C1CC1)c1cnc(Cl)c(Cl)c1 [Example 19]	++ (75-100% control of plant disease)	++ (75-100% control of plant disease)	- (0-24% control of plant disease)	++ (75-100% control of plant disease)	–	–	–	–
CNC(=O)C(=NOC)c1ccccc1COc1ncc(-c2noc(CSc3ccccc3)n2)cc1Cl [Example 24]	–	–	–	–	0 to 24%	75 to 100%	75 to 100%	75 to 100%
CNC(=O)C(=NOC)c1ccccc1COc1ccc(-c2noc(CSc3ccccc3)n2)cn1 [Example 28]	–	–	–	–	75 to 100%	75 to 100%	75 to 100%	75 to 100%
